Tested on: PvfC
Experiment: ATP-[…]PPi exchange assay
Assay type: biochemical, Pseudomonas entomophila
Conditions: ATP co-substrate; adenylation domain

In the case of `CC(C)[C@H](N)C(=O)O` [L-Val], the Km is reported as 3.4 ± 0.7 mM.

— publication PMC6195765 (Organic letters, 2018)
